Literature values as cited in patent EP1688139A1 (Board of Regents of the University of Nebraska, priority 2000, dated 2002).

Test system: 3-nitropropionic acid
Conditions: rats, diet supplemented with creatine for 2 weeks, exposed to 3-nitropropionic acid

N-aminoiminomethyl-N-methylglycine [Creatine]
less lesion volume than nonsupplemented animals: 83%
